Patent publication US11753407B2, “Compounds for treating spinal muscular atrophy” (PTC Therapeutics, Inc., priority 2012, dated 2023)

Tests used:
[1] = system: SMN2 minigene mRNA (SMN2-A minigene) in HEK293H cells; assay: SMN2 minigene mRNA splicing RT-qPCR assay in cultured cells; type: cell-based, human; conditions: Homo sapiens, HEK293-H; concentration increasing full length SMN2 mRNA 1.5-fold relative to vehicle-treated cells; HEK293H cells with SMN2-A minigene, 24 hours, 7-point concentration data; read-out: EC1.5x for production of full length SMN2 mRNA
How it was run: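 EC1.5× values derive from a 24 h treatment of SMN2-A minigene HEK293H cells and GAPDH-normalized RT-qPCR of exon 7-included minigene mRNA relative to vehicle-treated cells.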

[2] = system: Smn protein in SMA patient fibroblast cells (GM03813); assay: Smn protein assay in cultured cells (SMN HTRF); type: cell-based, human; conditions: SMA patient fibroblast cells, 48 hours; for EC1.5x for Smn protein expression: 7-point concentration curve, SMN HTRF, concentration producing 1.5 times Smn protein vs DMSO vehicle control; for maximum fold (Fold) increase of Smn protein: 7-point concentration data, fold relative to vehicle control
How it was run: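 Cells were cultured 72 h, seeded at 5,000/well and dosed with seven concentrations (3.16-fold apart) for 48 h. HTRF on lysates, read at 665 and 620 nm, gave blank-corrected ΔF values relative to DMSO. Potency is reported as EC1.5×, efficacy as maximal fold Smn increase.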

Question: Which results are given for Cc1nc2ccc(-c3cc(=O)n4cc(N5CCN(C)CC5)ccc4n3)cn2n1 [Compound 805, 7-(4-methylpiperazin-1-yl)-2-(2-methyl[1,2,4]triazolo[1,5-a]pyridin-6-yl)-4H-pyrido[1,2-a]pyrimidin-4-one]?
Answer: EC (1.5-fold increase) [1]: 0.1 to 0.3 µM; EC1.5x for Smn protein expression [2]: *** (an EC1.5× between >0.3 μM and ≤1 μM is indicated by three stars (***)); maximum fold (Fold) increase of Smn protein [2]: ***** (a fold increase >1.65 is indicated by five stars (*****))

Question: With Cc1cn2cc(-c3cc(=O)n4cc(N5CCN(C)CC5)ccc4n3)cc(C(F)(F)F)c2n1 [Compound 806, 7-(4-methylpiperazin-1-yl)-2-[2-methyl-8-(trifluoromethyl)imidazo[1,2-a]pyridin-6-yl]-4H-pyrido[1,2-a]pyrimidin-4-one] as the compound, how does the EC (1.5-fold increase) [1] read?
Answer: < 0.1 µM

Question: What about the “EC1.5x for Smn protein expression” value [2] of the same compound?
Answer: **** (an EC1.5x≤0.3 μM is indicated by four stars (****))

Question: And the “maximum fold (Fold) increase of Smn protein” value (from here on “maximum fold (Fold) increase”) [2]?
Answer: ***** (a fold increase >1.65 is indicated by five stars (*****))

Question: Cc1cn2cc(-c3cc(=O)n4cc(N5CCN(C)CC5)ccc4n3)cc(C#N)c2n1 [Compound 807, 2-methyl-6-[7-(4-methylpiperazin-1-yl)-4-oxo-4H-pyrido[1,2-a]pyrimidin-2-yl]imidazo[1,2-a]pyridine-8-carbonitrile] was tested. Which EC (1.5-fold increase) [1] did it give?
Answer: < 0.1 µM

Question: What about the “EC1.5x for Smn protein expression” value [2] of the same compound?
Answer: **** (an EC1.5x≤0.3 μM is indicated by four stars (****))

Question: And the “maximum fold (Fold) increase” value [2]?
Answer: ***** (a fold increase >1.65 is indicated by five stars (*****))

Question: What does the source list for Cc1cn2cc(-c3cc(=O)n4cc(N5CCN(C)CC5)ccc4n3)cc(C)c2n1 [Compound 808, 2-(2,8-dimethylimidazo[1,2-a]pyridin-6-yl)-7-(4-methylpiperazin-1-yl)-4H-pyrido[1,2-a]pyrimidin-4-one]?
Answer: EC (1.5-fold increase) [1]: < 0.1 µM; EC1.5x for Smn protein expression [2]: **** (an EC1.5x≤0.3 μM is indicated by four stars (****)); maximum fold (Fold) increase of Smn protein [2]: ***** (a fold increase >1.65 is indicated by five stars (*****))

Question: With Cc1cn2cc(-c3cc(=O)n4cc(N5CCNC6(CC6)C5)ccc4n3)cc(C)c2n1 [Compound 809, 7-(4,7-diazaspiro[2.5]oct-7-yl)-2-(2,8-dimethylimidazo[1,2-a]pyridin-6-yl)-4H-pyrido[1,2-a]pyrimidin-4-one] as the compound, how does the EC (1.5-fold increase) [1] read?
Answer: < 0.1 µM

Question: And the “EC1.5x for Smn protein expression” value [2]?
Answer: **** (an EC1.5x≤0.3 μM is indicated by four stars (****))

Question: And the “maximum fold (Fold) increase” value [2]?
Answer: ***** (a fold increase >1.65 is indicated by five stars (*****))

Question: Cc1cn2cc(-c3cc(=O)n4cc(C5CCN(C)CC5)ccc4n3)cc(F)c2n1 [Compound 810, 2-(8-fluoro-2-methylimidazo[1,2-a]pyridin-6-yl)-7-(1-methylpiperidin-4-yl)-4H-pyrido[1,2-a]pyrimidin-4-one] was tested. Which EC (1.5-fold increase) [1] did it give?
Answer: < 0.1 µM

Question: And the “EC1.5x for Smn protein expression” value [2]?
Answer: **** (an EC1.5x≤0.3 μM is indicated by four stars (****))

Question: And the “maximum fold (Fold) increase” value [2]?
Answer: ***** (a fold increase >1.65 is indicated by five stars (*****))

Question: With Cc1cn2cc(-c3cc(=O)n4cc(C5(O)CCNCC5)ccc4n3)cc(F)c2n1 [Compound 811, 2-(8-fluoro-2-methylimidazo[1,2-a]pyridin-6-yl)-7-(4-hydroxypiperidin-4-yl)-4H-pyrido[1,2-a]pyrimidin-4-one] as the compound, how does the EC (1.5-fold increase) [1] read?
Answer: 0.3 to 1 µM

Question: What about the “EC1.5x for Smn protein expression” value [2] of the same compound?
Answer: *** (an EC1.5× between >0.3 μM and ≤1 μM is indicated by three stars (***))

Question: What about the “maximum fold (Fold) increase” value [2] of the same compound?
Answer: ***** (a fold increase >1.65 is indicated by five stars (*****))

Question: Which results are given for CCc1nc(C)cn2nc(-c3cc(=O)n4cc(N5CCN6CCC[C@H]6C5)ccc4n3)cc12 [Compound 812, 2-(4-ethyl-6-methylpyrazolo[1,5-a]pyrazin-2-yl)-7-[(8aS)-hexahydropyrrolo[1,2-a]pyrazin-2(1H)-yl]-4H-pyrido[1,2-a]pyrimidin-4-one]?
Answer: EC (1.5-fold increase) [1]: < 0.1 µM; EC1.5x for Smn protein expression [2]: **** (an EC1.5x≤0.3 μM is indicated by four stars (****)); maximum fold (Fold) increase of Smn protein [2]: ***** (a fold increase >1.65 is indicated by five stars (*****))

Question: With CCc1nc(C)cn2nc(-c3cc(=O)n4cc(N5CCN6CCC[C@@H]6C5)ccc4n3)cc12 [Compound 813, 2-(4-ethyl-6-methylpyrazolo[1,5-a]pyrazin-2-yl)-7-[(8aR)-hexahydropyrrolo[1,2-a]pyrazin-2(1H)-yl]-4H-pyrido[1,2-a]pyrimidin-4-one] as the compound, how does the EC (1.5-fold increase) [1] read?
Answer: < 0.1 µM

Question: What about the “EC1.5x for Smn protein expression” value [2] of the same compound?
Answer: **** (an EC1.5x≤0.3 μM is indicated by four stars (****))

Question: And the “maximum fold (Fold) increase” value [2]?
Answer: ***** (a fold increase >1.65 is indicated by five stars (*****))

Question: Which results are given for CCc1nc(C)cn2nc(-c3cc(=O)n4cc(N5CC[C@@H](N(C)C)C5)ccc4n3)cc12 [Compound 814, 7-[(3R)-3-(dimethylamino)pyrrolidin-1-yl]-2-(4-ethyl-6-methylpyrazolo[1,5-a]pyrazin-2-yl)-4H-pyrido[1,2-a]pyrimidin-4-one]?
Answer: EC (1.5-fold increase) [1]: < 0.1 µM; EC1.5x for Smn protein expression [2]: **** (an EC1.5x≤0.3 μM is indicated by four stars (****)); maximum fold (Fold) increase of Smn protein [2]: ***** (a fold increase >1.65 is indicated by five stars (*****))

Question: How did the EC (1.5-fold increase) [1] turn out when CCc1nc(C)cn2nc(-c3cc(=O)n4cc(N5CC[C@H](N(C)C)C5)ccc4n3)cc12 [Compound 815, 7-[(3S)-3-(dimethylamino)pyrrolidin-1-yl]-2-(4-ethyl-6-methylpyrazolo[1,5-a]pyrazin-2-yl)-4H-pyrido[1,2-a]pyrimidin-4-one] was run?
Answer: < 0.1 µM

Question: What about the “EC1.5x for Smn protein expression” value [2] of the same compound?
Answer: **** (an EC1.5x≤0.3 μM is indicated by four stars (****))

Question: And the “maximum fold (Fold) increase” value [2]?
Answer: ***** (a fold increase >1.65 is indicated by five stars (*****))

Question: Which EC (1.5-fold increase) [1] does the source give for Cc1cn2cc(-c3cc(=O)n4cc(N5CCN6CCC[C@@]6(C)C5)ccc4n3)cc(F)c2n1 [Compound 816, 2-(8-fluoro-2-methylimidazo[1,2-a]pyridin-6-yl)-7-[(8aS)-8a-methylhexahydropyrrolo[1,2-a]pyrazin-2(1H)-yl]-4H-pyrido[1,2-a]pyrimidin-4-one] here?
Answer: < 0.1 µM

Question: What about the “EC1.5x for Smn protein expression” value [2] of the same compound?
Answer: **** (an EC1.5x≤0.3 μM is indicated by four stars (****))

Question: What about the “maximum fold (Fold) increase” value [2] of the same compound?
Answer: **** (a fold increase between >1.5 and ≤1.65 is indicated by four stars (****))

Question: With CCc1nc(C)cn2nc(-c3cc(=O)n4cc(N5CCN(CC)CC5)cc(C)c4n3)cc12 [Compound 817, 2-(4-ethyl-6-methylpyrazolo[1,5-a]pyrazin-2-yl)-7-(4-ethylpiperazin-1-yl)-9-methyl-4H-pyrido[1,2-a]pyrimidin-4-one] as the compound, how does the EC (1.5-fold increase) [1] read?
Answer: < 0.1 µM

Question: What about the “EC1.5x for Smn protein expression” value [2] of the same compound?
Answer: **** (an EC1.5x≤0.3 μM is indicated by four stars (****))

Question: What about the “maximum fold (Fold) increase” value [2] of the same compound?
Answer: ***** (a fold increase >1.65 is indicated by five stars (*****))

Question: What does the source list for CCc1nc(C)cn2nc(-c3cc(=O)n4cc(N5CCN6CCC[C@H]6C5)cc(C)c4n3)cc12 [Compound 818, 2-(4-ethyl-6-methylpyrazolo[1,5-a]pyrazin-2-yl)-7-[(8aS)-hexahydropyrrolo[1,2-a]pyrazin-2(1H)-yl]-9-methyl-4H-pyrido[1,2-a]pyrimidin-4-one]?
Answer: EC (1.5-fold increase) [1]: 0.1 to 0.3 µM; EC1.5x for Smn protein expression [2]: *** (an EC1.5× between >0.3 μM and ≤1 μM is indicated by three stars (***)); maximum fold (Fold) increase of Smn protein [2]: ***** (a fold increase >1.65 is indicated by five stars (*****))

Question: For CCN1CCN(c2ccc3nc(-c4cc(C)c5nc(C)cn5c4)cc(=O)n3c2)CC1 [Compound 819, 2-(2,8-dimethylimidazo[1,2-a]pyridin-6-yl)-7-(4-ethylpiperazin-1-yl)-4H-pyrido[1,2-a]pyrimidin-4-one], which EC (1.5-fold increase) [1] is on record?
Answer: < 0.1 µM

Question: And the “EC1.5x for Smn protein expression” value [2]?
Answer: **** (an EC1.5x≤0.3 μM is indicated by four stars (****))

Question: What about the “maximum fold (Fold) increase” value [2] of the same compound?
Answer: ***** (a fold increase >1.65 is indicated by five stars (*****))

Question: How did the EC (1.5-fold increase) [1] turn out when Cc1cn2cc(-c3cc(=O)n4cc(N5CCN6CCC[C@H]6C5)ccc4n3)cc(C)c2n1 [Compound 820, 2-(2,8-dimethylimidazo[1,2-a]pyridin-6-yl)-7-[(8aS)-hexahydropyrrolo[1,2-a]pyrazin-2(1H)-yl]-4H-pyrido[1,2-a]pyrimidin-4-one] was run?
Answer: < 0.1 µM

Question: And the “EC1.5x for Smn protein expression” value [2]?
Answer: **** (an EC1.5x≤0.3 μM is indicated by four stars (****))

Question: And the “maximum fold (Fold) increase” value [2]?
Answer: ***** (a fold increase >1.65 is indicated by five stars (*****))

Question: Cc1cn2cc(-c3cc(=O)n4cc(N5CCN6CCCC6(C)C5)ccc4n3)cc(C)c2n1 (stereo not drawn) [Compound 821, 2-(2,8-dimethylimidazo[1,2-a]pyridin-6-yl)-7-(8a-methylhexahydropyrrolo[1,2-a]pyrazin-2(1H)-yl)-4H-pyrido[1,2-a]pyrimidin-4-one] was tested. Which EC (1.5-fold increase) [1] did it give?
Answer: < 0.1 µM

Question: What about the “EC1.5x for Smn protein expression” value [2] of the same compound?
Answer: **** (an EC1.5x≤0.3 μM is indicated by four stars (****))

Question: And the “maximum fold (Fold) increase” value [2]?
Answer: ***** (a fold increase >1.65 is indicated by five stars (*****))

Question: CCc1nc(C)cn2nc(-c3cc(=O)n4cc(N5CC[C@@H](N(C)C)C5)cc(C)c4n3)cc12 [Compound 822, 7-[(3R)-3-(dimethylamino)pyrrolidin-1-yl]-2-(4-ethyl-6-methylpyrazolo[1,5-a]pyrazin-2-yl)-9-methyl-4H-pyrido[1,2-a]pyrimidin-4-one] was tested. Which EC (1.5-fold increase) [1] did it give?
Answer: 0.1 to 0.3 µM

Question: And the “EC1.5x for Smn protein expression” value [2]?
Answer: *** (an EC1.5× between >0.3 μM and ≤1 μM is indicated by three stars (***))

Question: And the “maximum fold (Fold) increase” value [2]?
Answer: **** (a fold increase between >1.5 and ≤1.65 is indicated by four stars (****))
